Test results published in PMC8000185 (International Journal of Molecular Sciences, 2021).

Columns and labels:
[1] = target: T1, urokinase from human kidney cells (human uPA) (Homo sapiens, UniProt P00749); test: uPA inhibition assay (fluorescence-based, purified enzyme); type: biochemical; conditions: for IC50: purified enzyme, Z-Gly-Gly-Arg-AMC substrate, number in parentheses after value, read-out: uPA IC50
T1 construct: low molecular weight active human uPA; purchased Sigma-Aldrich U4010; host or cells: human kidney cells

[2] = target: T2, NHE1 (Homo sapiens, UniProt P19634); test: Plate-based NHE1 inhibition assay (BCECF pHi recovery, 96-well plate reader); type: cell-based; conditions: MDA-MB-231 cells, plate reader
T2 construct: endogenous in cells; host or cells: MDA-MB-231
Experimental: To perform NHE1 screening with increased throughput, we adapted the conventional cuvette-based NHE1 activity assay to a simple new 96-well plate format using MDA-MB-231 cells that were compatible with common laboratory fluorescence plate readers (see Section 4 for details).
Culture media were removed and replaced with 200 µL 0.2% FBS-containing media with incubation for 3–4 h to stimulate NHE1 activity, followed by incubation for 30 min in the presence of 5 µM 2′,7′-bis(carboxyethyl)-5(6)-carboxyfluorescein-acetoxymethyl ester (BCECF-AM, cat #ab143463, Abcam, Cambridge, United Kingdom). Cells were then washed with 100 µL/well Na^+-free acid-load buffer: 10 mM NH4Cl, 1.8 mM CaCl2, 90 mM N-methyl-D-glucamine (from 1 M stock titrated to pH 7.4 with HCl), 5 mM glucose, 15 mM HEPES, 5 mM KCl, 1 mM MgCl2 (pH 7.5, adjusted with KOH), and incubated at 37 °C for a further 30 min. Acid-load buffer was removed and replaced with Na^+-containing assay buffer: 100 mM NaCl, 1.8 mM CaCl2, 5 mM glucose, 15 mM HEPES, 5 mM KCl, 1 mM MgCl2 containing serial dilution of each compound or DMSO vehicle, and changes in fluorescence were read immediately using a BMG Labtech POLARstar OMEGA (BMG Labtech GmbH, Offenburg, Germany) plate reader according to the parameters in Table S1. Compounds were tested at n = 3 technical replicates per concentration per plate. BCECF-AM-free cells were treated with matched concentrations of each compound to correct for intrinsic fluorescence. DMSO was present in all wells at a final concentration of 1% v/v. Inhibition of NHE1-mediated pHi recovery was determined by ratiometric calculation of the change in blank-corrected pH-sensitive fluorescence divided by the isobestic fluorescence for each well over time. […] (0% activity) controls present on each plate. IC50 values were determined through fitting of Log-10 transformed data using the “log(inhibitor) versus normalised response–variable slope” non-linear function in GraphPad PRISM v8.0 software package (GraphPad Software, San Diego, CA, USA).

[3] = Cell viability (cytotoxicity) assay; type: cell-based; conditions: human, MDA-MB-231 cells, 48 h treatment
Experimental: On the day of treatment, respective compounds were serially diluted using a semi-logarithmic dilution series from 20 mM stocks in neat DMSO into DMEM-high glucose media (10% v/v FBS) in a separate 96-well plate and under sterile conditions. Thereafter, 10 μL of the diluted compounds at their respective concentrations (n = 4) were added to the cells. […] Vehicle media blanks or drug blanks were also included to correct for inherent colour of the compounds and phenol red-containing media. Following 48 h treatment, 20 μL CellTitre 96® Aqueous One Solution Cell Proliferation Assay (Promega, Madison, USA) was added to each well, plates were incubated for 2 h, and absorbance was measured at 490 nm using a SpectraMax Plus 384-well plate reader (Molecular Devices LLC, San Jose, USA) and Softmax PRO v7.0 software. Blank-corrected data were analysed and graphed using GraphPad PRISM v8.0 software (GraphPad Software, San Diego, CA USA).

T2 sequence (P19634 whole entry): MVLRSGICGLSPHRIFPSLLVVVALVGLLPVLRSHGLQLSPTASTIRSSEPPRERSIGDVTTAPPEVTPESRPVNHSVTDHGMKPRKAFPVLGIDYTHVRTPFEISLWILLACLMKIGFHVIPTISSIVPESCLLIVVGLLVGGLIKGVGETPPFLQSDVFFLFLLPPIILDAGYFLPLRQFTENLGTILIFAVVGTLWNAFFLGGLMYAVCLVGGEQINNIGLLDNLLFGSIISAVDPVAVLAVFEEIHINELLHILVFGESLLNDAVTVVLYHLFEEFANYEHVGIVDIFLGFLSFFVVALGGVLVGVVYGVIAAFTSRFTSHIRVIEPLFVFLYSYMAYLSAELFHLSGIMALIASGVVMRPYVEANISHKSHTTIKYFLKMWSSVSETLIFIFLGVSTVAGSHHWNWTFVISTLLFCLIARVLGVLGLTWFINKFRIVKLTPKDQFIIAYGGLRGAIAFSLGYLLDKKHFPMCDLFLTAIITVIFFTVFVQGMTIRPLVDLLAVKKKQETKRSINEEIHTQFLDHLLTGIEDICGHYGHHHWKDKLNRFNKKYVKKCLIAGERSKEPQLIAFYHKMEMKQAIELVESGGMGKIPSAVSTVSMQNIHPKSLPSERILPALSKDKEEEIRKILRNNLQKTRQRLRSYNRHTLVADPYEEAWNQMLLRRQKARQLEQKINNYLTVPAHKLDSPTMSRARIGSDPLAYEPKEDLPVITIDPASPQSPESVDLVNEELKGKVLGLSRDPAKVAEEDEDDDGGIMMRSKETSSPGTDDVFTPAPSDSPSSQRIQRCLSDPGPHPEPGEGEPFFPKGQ

Row | IC50 [1] | inhibition at 1 µM [2] | NHE1 Inhibition (%) 10 μM ([2]; 10 μM) | inhibition at 10 µM ([2]; 10 μM) | inhibition at 2.5 µM ([1]; @ 2,500 nM, read-out: uPA inhibition at single concentration (printed in uPA IC50 column)) | higher uPA activity than its HMA congener 15 [1] | decrease in uPA activity on opening the 5-alkylamino ring ([1]; within the 6-(2-benzofuranyl) series) | Structure (SMILES) | IC50 at 48 h [3]
1 | 2.21 µM | 66% | completely blocking activity | 100% | – | – | – | N=C(N)NC(=O)c1nc(Cl)c(N2CCCCCC2)nc1N [HMA, 5-(N,N-hexamethylene)amiloride, reference compound] | 32.1 µM
2 | 0.297 ± 0.016 µM | 39% | – | 72% | – | – | – | N=C(N)NC(=O)c1nc(-c2cc3ccccc3o2)c(N2CCCCCC2)nc1N [compound 5] | 19.1 µM
3 | 1.05 µM | 0% | – | 71% | – | – | – | Cc1ccc2oc(-c3nc(C(=O)NC(=N)N)c(N)nc3N)cc2c1 [compound 6] | 11.7 µM
4 | 1.18 µM | 5% | – | 100% | – | – | – | Cc1ccc2oc(-c3nc(C(=O)NC(=N)N)c(N)nc3N3CCCCCC3)cc2c1 [compound 7] | 8.8 µM
5 | 0.954 ± 0.072 µM | 0% | – | 75% | – | – | – | N=C(N)NC(=O)c1nc(-c2cc3cc(F)ccc3o2)c(N)nc1N [compound 8] | 10.6 µM
6 | 0.187 ± 0.017 µM | 22% | – | 100% | – | – | – | N=C(N)NC(=O)c1nc(-c2cc3cc(F)ccc3o2)c(N2CCCCCC2)nc1N [compound 9] | 9.6 µM
7 | 0.94 ± 0.059 µM | 0% | – | 62% | – | – | – | N=C(N)NC(=O)c1nc(-c2cc3cc(Cl)ccc3o2)c(N)nc1N [compound 10] | 4.4 µM
8 | – | 0% | – | 0% | 49% | – | – | N=C(N)NC(=O)c1nc(-c2cc3cc(Cl)ccc3o2)c(N2CCCCCC2)nc1N [compound 11] | 26.4 µM
9 | 5.93 µM | 0% | – | 97% | – | – | – | N=C(N)NC(=O)c1nc(-c2cc3cc(Br)ccc3o2)c(N)nc1N [compound 12] | 32.1 µM
10 | 2.56 µM | 0% | – | 0% | – | – | – | N=C(N)NC(=O)c1nc(-c2cc3cc(Br)ccc3o2)c(N2CCCCCC2)nc1N [compound 13] | 6.2 µM
11 | 0.467 ± 0.022 µM | 4% | – | 36% | – | > 3 fold | – | COc1ccc2oc(-c3nc(C(=O)NC(=N)N)c(N)nc3N)cc2c1 [compound 14] | > 100 µM
12 | 1.69 µM | 34% | – | 91% | – | – | – | COc1ccc2oc(-c3nc(C(=O)NC(=N)N)c(N)nc3N3CCCCCC3)cc2c1 [compound 15] | 25.1 µM
13 | 0.609 ± 0.026 µM | 7% | – | 52% | – | – | – | N=C(N)NC(=O)c1nc(-c2cc3cc(F)cc(F)c3o2)c(N)nc1N [compound 16] | 4.7 µM
14 | 0.38 ± 0.01 µM | 0% | – | 90% | – | – | – | N=C(N)NC(=O)c1nc(-c2cc3cc(F)cc(F)c3o2)c(N2CCCCCC2)nc1N [compound 17] | 8.8 µM
15 | 1.01 µM | – | – | – | – | – | – | N=C(N)NC(=O)c1nc(-c2cc3cnccc3o2)c(N)nc1N [compound 18] | 26.4 µM
16 | 0.164 µM | 23% | – | 100% | – | – | – | N=C(N)NC(=O)c1nc(-c2cc3cnccc3o2)c(N2CCCCCC2)nc1N [compound 19] | 69.4 µM
17 | 0.453 µM | 0% | – | 31% | – | – | – | N=C(N)NC(=O)c1nc(-c2cc3ncccc3o2)c(N)nc1N [compound 20] | > 100 µM
18 | 0.038 µM | 2% | – | 100% | – | – | – | N=C(N)NC(=O)c1nc(-c2cc3ncccc3o2)c(N2CCCCCC2)nc1N [compound 21] | 43.1 µM

Row | IC50 [1] | inhibition at 1 µM [2] | NHE1 Inhibition (%) 10 μM ([2]; 10 μM) | inhibition at 10 µM ([2]; 10 μM) | inhibition at 2.5 µM ([1]; @ 2,500 nM, read-out: uPA inhibition at single concentration (printed in uPA IC50 column)) | higher uPA activity than its HMA congener 15 [1] | decrease in uPA activity on opening the 5-alkylamino ring ([1]; within the 6-(2-benzofuranyl) series) | Structure (SMILES) | IC50 at 48 h [3]
19 | 5.1 µM | – | – | – | – | – | – | N=C(N)NC(=O)c1nc(-c2ccc(C(F)(F)F)cc2)c(N)nc1N [compound 22] | 82.4 µM
20 | 6.91 µM | 77% | – | 100% | – | – | – | N=C(N)NC(=O)c1nc(-c2ccc(C(F)(F)F)cc2)c(N2CCCCCC2)nc1N [compound 23] | 14.7 µM
21 | 0.333 ± 0.022 µM | 0% | – | 18% | – | – | – | COc1ncc(-c2nc(C(=O)NC(=N)N)c(N)nc2N)cn1 [compound 25] | > 100 µM
22 | 0.034 ± 0.005 µM | 0% | – | 11% | – | – | – | N=C(N)NC(=O)c1nc(-c2cnc(N)nc2)c(N2CCCCCC2)nc1N [compound 27] | > 100 µM
23 | 0.067 ± 0.003 µM | 0% | – | 15% | – | – | – | N=C(N)NC(=O)c1nc(-c2cnc(NCCO)nc2)c(N2CCCCCC2)nc1N [compound 28] | > 100 µM
24 | 0.546 ± 0.024 µM | 18% | – | 85% | – | – | – | N=C(N)NC(=O)c1nc(-c2cc3ccccc3o2)c(N2CCCC2)nc1N [compound 31] | 22.7 µM
25 | 1.88 µM | 69% | – | 100% | – | – | – | N=C(N)NC(=O)c1nc(-c2cc3ccccc3o2)c(N2CCCCC2)nc1N [compound 32] | 16.2 µM
26 | 1.6 µM | 8% | – | 41% | – | – | > 5 fold | CCN(c1nc(N)c(C(=O)NC(=N)N)nc1-c1cc2ccccc2o1)C(C)C [compound 33] | 17.2 µM
27 | 5.87 µM | 0% | – | 0% | – | – | – | N=C(N)NC(=O)c1nc(-c2cc3ccccc3o2)c(NC2CCCC2)nc1N [compound 34] | 6.2 µM
28 | 30.2 µM | 0% | – | 0% | – | – | – | N=C(N)NC(=O)c1nc(-c2cc3ccccc3o2)c(NC2CCCCCC2)nc1N [compound 35] | 26.2 µM
29 | 0.797 ± 0.015 µM | 29% | – | 81% | – | – | – | N=C(N)NC(=O)c1nc(-c2cc3ccccc3o2)c(N2CCOCC2)nc1N [compound 36] | 36.7 µM
30 | 0.149 ± 0.017 µM | 55% | – | 96% | – | – | – | N=C(N)NC(=O)c1nc(-c2cc3ccccc3o2)c(N2CCCOCC2)nc1N [compound 37] | 54 µM
31 | 0.113 ± 0.004 µM | 0% | – | 81% | – | – | – | N=C(N)NC(=O)c1nc(-c2cc3ncccc3o2)c(N2CCCC2)nc1N [compound 38] | > 100 µM
32 | 16.2 µM | 28% | – | 80% | – | – | – | N=C(N)NC(=O)c1nc(-c2ccc(C(F)(F)F)cc2)c(C2CC2)nc1N [compound 40] | 26.6 µM
33 | 0.563 ± 0.029 µM | 77% | – | 87% | – | – | – | N=C(N)NC(=O)c1nc(-c2cncnc2)c(N2CCOCC2)nc1N [compound 41] | > 100 µM
34 | 0.78 ± 0.033 µM | 39% | – | 96% | – | – | – | N=C(N)NC(=O)c1nc(-c2cncnc2)c(N2CCCOCC2)nc1N [compound 42] | > 100 µM
35 | 0.267 ± 0.014 µM | 0% | – | 16% | – | – | – | COc1ncc(-c2nc(C(=O)NC(=N)N)c(N)nc2N2CCCOCC2)cn1 [compound 43] | > 100 µM

Row | Structure (SMILES) | IC50 [1] | inhibition at 1 µM [2] | NHE1 Inhibition (%) 10 μM ([2]; 10 μM) | inhibition at 10 µM ([2]; 10 μM) | inhibition at 2.5 µM ([1]; @ 2,500 nM, read-out: uPA inhibition at single concentration (printed in uPA IC50 column)) | higher uPA activity than its HMA congener 15 [1] | decrease in uPA activity on opening the 5-alkylamino ring ([1]; within the 6-(2-benzofuranyl) series) | IC50 at 48 h [3]
36 | N=C(N)NC(=O)c1nc(I)c(N)nc1N [compound 3] | 1.58 µM | 36% | – | 86% | – | – | – | > 100 µM
